# Laboratory results reported in US7977317B2, “Compositions and methods for modulating blood-brain barrier transport” (Raptor Pharmaceutical Inc., priority 2001, dated 2011).
# Legend:
# human brain capillaries = assay: Accumulation/uptake of [125I]-p97 in isolated human brain capillaries; assay type: binding
# Protocol: FIG. 5. Accumulation of p97 in human brain capillaries. Accumulation of [^125I]-p97 was measured at 37° C. for 1 h in isolated human brain capillaries (100 μg/assay). The incubation medium contained [^125I]-p97 and a final concentration of 100 nM p97 in Ringer/Hepes solution. The accumulation of [^125I]-p97 was performed in the presence or absence of 5 μm cold-p97, holo-transferrin or lactoferrin. […] The suspension was filtered under vacuum through a […] pore size Millipore filter. The filter was rinsed with 8 ml of stop solution, and the radioactivity was counted. Nonspecific binding of the radioactivity to the capillaries was determined by the addition of the ice-cold stop solution to the capillaries before adding the incubation medium. This value was subtracted from accumulation values obtained following an 1 h incubation. The results were expressed as ng of [^125I]-p97 accumulated per μg of brain capillaries.
# FIG. 16 illustrates the identification of a p97 receptor according to ligand specificity. FIG. 16a, Uptake of [^125I]-p97 into human brain capillaries. The uptake of [^125I]-p97 at 100 nM (control) into isolated human brain capillaries was measured for 1 h at 37° C. in the presence of a 50-fold molar excess of unlabelled p97, human holo-transferrin or human lactoferrin. (*[…] Student's t-test (n=5); FIG. 16b, Effect of RAP on [^125I]-p97 transcytosis across BBCEC monolayers. Apical-to-basal transport of [^125I]-p97 was measured in the presence (closed circles) or absence (open circles) of RAP (25 μg/ml) (n=5); FIG. 16c, Inhibition of bovine [^125I]-lactoferrin transport by p97. Transcytosis of bovine [^125I]-lactoferrin (50 nM) was measured in the presence (closed circles) or absence (open circles) of unlabelled p97 (5 μM) at 37° C. (n=3).
# A. Isolation of human brain capillaries. Capillaries of the blood-brain barrier were isolated from human brain cortex by a procedure previously described by Dallaire, et al., J. Biol. Chem., 267:22323-22327 (1992) with slight modifications. Human brains were obtained post-mortem. The brain was cleared of meninges, superficial large blood vessels and choroid plexus. All the following procedures were performed at 4° C. The cerebral cortex was homogenized in 5 volumes of Ringer/Hepes solution with a Polytron (Brinkman Instruments, Rexdale, Ontario, Canada). The homogenate was mixed with an equal volume of Dextran T-70 (27 g in 100 ml of Ringer/Hepes). The suspension was centrifuged at 25,000 g for 10 min. The pellet was resuspended in 30 ml of Ringer/Hepes and passed through a 250 μm nylon mesh screen. […]
# B. p97 accumulation in human brain capillaries. […] Accumulation of [^125I]-p97 was measured at 37° C. for 1 h in isolated human brain capillaries (100 μg/assay). […]
# [1] = Brain uptake one hour after i.v. injection; assay type: in vivo; settings: mice, one hour after i.v. injection of [125I]-protein (FIG. 11a)
# Protocol: FIG. 11 examines the accumulation and transcytosis of p97. FIG. 11a, of [^125I]-p97, [^125I]-BSA and [^125I]-holo-transferrin one hour after i.v. injection. The radioactivity in brain was compared between the three compounds. (n=3); FIG. 11b, Accumulation of p97 and transferrin into the mouse brain parenchyma. In situ brain perfusion was performed with human [^125I]-p97 or [^125I]-holo-transferrin at a final concentration of 10 nM via a catheter inserted in the right common carotid artery. The volume of distribution (VD) of [^125I]-proteins were obtained in the whole brain homogenate (white bars), in brain capillaries (solid bars) and in brain parenchyma (hatched bars) after isolation of the right hemisphere and capillary depletion. Results were obtained for p97 (n=10) and for holo-transferrin (n=6); FIG. 11c, Transcytosis of p97 across BBCEC monolayers. Transcytosis experiments were performed 37° C. (open circles) and 4° C. (closed circles) with BBCEC monolayers. […] Apical-to-basal and basal-to-apical transport of [^125I]-p97 (25 nM) was measured for 2 hrs at 37° C. At the end of the experiment, [^125I]-p97 was assessed in the lower or upper chambers of each well by TCA precipitation (n=4).
# A. Brain uptake and in situ brain perfusion. […] The serum and brain samples were collected and the levels of radioactivity were measured. […]
substance,measurement,setting,value
"transferrin: transferrin (Tf), iron-binding serum protein used as comparator and competitor",Inhibition of [125I]-p97 binding/accumulation in human brain capillaries,"human brain capillaries; competitor 5 micromolar, 100 nM p97, 1 h at 37° C. (FIG. 5)",no significant competition
same,"Competition with p97 for receptor binding in human brain capillaries, repeat experiment",human brain capillaries; performed identically to FIG. 5 (FIG. 6),not
same,Brain/serum ratio,[1],0.008
